Data: the NIST ThermoML archive (doi:10.1021/acs.jced.8b00064)

Experiments:
[1] = for vapor or sublimation pressure: Liquid, Closed cell (Static) method
[2] = molar heat capacity at constant pressure; conditions: 101.33 kPa, Crystal, DSC
[3] = Molar enthalpy of transition or fusion; conditions: Crystal; DSC

CCCCO [butan-1-ol]
[1]
Conditions | vapor or sublimation pressure [kPa]
333.2 K | 8.1
348.2 K | 17.5

O=C(O)CC(O)(CC(=O)O)C(=O)O [citric acid]
[2]
Conditions | molar heat capacity at constant pressure [J/K/mol]
324.9 K | 239.8
328.2 K | 243
331.5 K | 245.9
334.9 K | 248.6
338.2 K | 251.2
341.5 K | 253.6
344.9 K | 255.9
348.2 K | 258.2
351.5 K | 260.4
354.9 K | 262.5
358.2 K | 264.6
361.5 K | 266.6
364.9 K | 268.7
368.2 K | 270.7
371.5 K | 272.6
374.9 K | 274.5
378.2 K | 276.2
381.5 K | 278.1
384.9 K | 279.9
388.2 K | 281.8
391.5 K | 283.7
394.9 K | 286

Conditions | Molar enthalpy of transition or fusion [kcal/mol]
[3] | 14.1

Conditions | Normal melting temperature [°C]
[1], Crystal, DTA | 151.8
